Active and inactive are the calls of the source.
Assays:
BMMC = experiment: Downregulation of osteoclastogenesis-associated gene expression in C57BL/6 mouse BMM cells assessed as inhibition of M-CSF/RANKL-induced TRAcP expression at 5 uM after 5 days by qRT-PCR analysis; format: functional, cell-based; details: time 5.0 day
[1] = Inhibition of RANKL-induced NFkappaB signaling pathway in mouse RAW264.7 cells assessed as reduction in NFkappaB p65 phosphorylation preincubated for 4 hrs followed by RANKL stimulation for 10 mins and measured by Western blot analysis; format: cell-based; details: dose 1-10 µM, time 250.0 min
[2] = molecular target: Transcription factor p65 (Mus musculus) (UniProt Q04207); experiment: Inhibition of RANKL-induced NFkappaB signaling pathway in mouse RAW264.7 cells assessed as reduction in NFkappaB p65 nuclear translocation at 10 uM preincubated for 4 hrs followed by RANKL stimulation for 10 mins and measured by DAPI staining based immunofluorescence analysis; format: cell-based; details: time 250.0 min
Transcription factor p65 (Mus musculus), sequence (Q04207 whole entry): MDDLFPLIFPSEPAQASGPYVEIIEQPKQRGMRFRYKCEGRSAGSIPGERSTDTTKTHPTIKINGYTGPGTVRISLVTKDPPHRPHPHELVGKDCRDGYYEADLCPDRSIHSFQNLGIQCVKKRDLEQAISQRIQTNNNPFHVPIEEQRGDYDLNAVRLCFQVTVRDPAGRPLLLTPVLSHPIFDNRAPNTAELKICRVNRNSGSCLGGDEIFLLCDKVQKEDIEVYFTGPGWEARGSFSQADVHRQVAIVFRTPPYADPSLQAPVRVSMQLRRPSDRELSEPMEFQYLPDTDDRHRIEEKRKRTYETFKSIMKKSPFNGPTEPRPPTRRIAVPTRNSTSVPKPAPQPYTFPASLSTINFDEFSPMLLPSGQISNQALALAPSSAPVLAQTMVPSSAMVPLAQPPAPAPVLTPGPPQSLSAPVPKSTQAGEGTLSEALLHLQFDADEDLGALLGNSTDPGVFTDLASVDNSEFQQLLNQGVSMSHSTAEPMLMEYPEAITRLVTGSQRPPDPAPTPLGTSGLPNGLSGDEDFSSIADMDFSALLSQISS

Mus musculus [3] = experiment: Antiosteoporotic activity against OVX-induced bone loss C57BL/6 mouse model assessed as increase in trabecular thickness in femoral metaphysis at 10 mg/kg, po QD for 4 weeks; format: functional, organism-based; details: dose 10.0 mg/kg/day
Mus musculus [4] = experiment: Antiosteoporotic activity against OVX-induced bone loss C57BL/6 mouse model assessed as decrease in trabecular spacing in femoral metaphysis at 10 mg/kg, po QD for 4 weeks; format: functional, organism-based; details: dose 10.0 mg/kg/day
Mus musculus [5] = experiment: Antiosteoporotic activity against OVX-induced bone loss C57BL/6 mouse model assessed as decrease in ACP5 level in serum at 10 mg/kg, po QD for 4 weeks; format: functional, organism-based; details: dose 10.0 mg/kg/day
[6] = molecular target: MAP kinase p38 (Mus musculus) (UniProt P47811+O08911+Q9WUI1+Q9Z1B7); experiment: Inhibition of RANKL-induced p38 phosphorylation in mouse RAW264.7 cells at 1 to 10 uM pretreated for 4 hrs prior to RANKL stimulation for 20 mins by western blot analysis; format: cell-based; details: dose 1-10 µM, time 260.0 min
[7] = Toxicity in OVX-induced bone loss C57BL/6 mouse model assessed as effect on liver morphology at 10 mg/kg, po QD for 4 weeks; format: organism-based; details: in vivo, 672 h, dose 10 mg/kg/day
[8] = Toxicity in OVX-induced bone loss C57BL/6 mouse model assessed as effect on thymus morphology at 10 mg/kg, po QD for 4 weeks; format: organism-based; details: in vivo, 672 h, dose 10 mg/kg/day
[9] = Toxicity in OVX-induced bone loss C57BL/6 mouse model assessed as effect on serum GLU level at 10 mg/kg, po QD for 4 weeks; format: organism-based; details: in vivo, 672 h, dose 10 mg/kg/day
[10] = Toxicity in OVX-induced bone loss C57BL/6 mouse model assessed as effect on serum LDH level at 10 mg/kg, po QD for 4 weeks; format: organism-based; details: in vivo, 672 h, dose 10 mg/kg/day

C=C1CC[C@@H]2[C@](C)(CNCc3ccc(F)cc3)[C@H](O)CC[C@@]2(C)[C@@H]1/C=C/C1=CCOC1=O
inactive: inhibition [6]
Non-Toxic: Activity [7] | Activity [8] | Activity [9] | Activity [10]
active: inhibition (BMMC) | inhibition [1] Dose-Dependent Effect | inhibition [2] | Activity (Mus musculus [3]) | Activity (Mus musculus [4]) | Activity (Mus musculus [5])

From ChEMBL document CHEMBL4819024, “Synthesis and evaluation of andrographolide derivatives as potent anti-osteoporosis agents in vitro and in vivo” (Eur J Med Chem, 2021)
